{
  "source": "patent US20210283146A1",
  "about": "“COMPOSITION CONTAINING A 7BETA-HYDROXYCHOLESTEROL AND A LIPID VEHICLE, AND ITS USE IN THE TREATMENT OF NEOPLASTIC PATHOLOGIES” (priority 2018, published 2021)",
  "key": {"[1]": {"details": "in vivo", "protocol": "The GBM tumour was obtained by necropsy of a dog with glioblastoma, which was treated by the oral route with BIM2b PO and which lived with a good quality of life for 8 months. Necropsy was carried out 21 days after stopping the treatment with BIM2b PO. The tumour was fixed in formol mainly for histopathology analysis and a remaining fragment was analysed for quantification of BIM2b.\nThe fragments of dog brains, stored individually in cryotubes at +4° C. in a bath of formol, are dried on sopalin paper before they are weighed and put in the Potter. Just as for extraction of the mouse brains, each fragment was extracted after adding 4 ml of cold 0.74% KCl. The procedures for homogenization and extraction are the same as was described for the mouse brains in the Methods section.\nDry lipid extract of the dog GBM tumour fragment was thus obtained and was chromatographed sequentially on a SEP PAK Classic Silica cartridge; then on SEP PAK Plus C18 (with eluent A=5 mM of ammonium acetate/ultrapure water and B=5 mM of ammonium acetate/MetOH).\nThe compound BIM2b and its metabolites in the tumour are separated, detected and quantified by HPTLC as described in Section II) Methods."}, "[2]": {"test": "Analysis of BIM2b in the brains of mice treated per os with BIM2b PO (HPTLC)", "assay_type": "in vivo, mouse", "details": "for Compound BIM2b (μg/g of brain): healthy mice, BIM2b PO per os", "protocol": "The mouse brains dried and stored invididually in cryotubes at […] in liquid nitrogen are left to return to ambient temperature. Each brain is weighed and put in the Potter; 4 ml of 0.74% of cold KCl is added and the rest of the procedure takes place on a bed of ice. Each brain is ground 6 times at 1000 rev/min, each cycle comprising 5 minutes of grinding and 5 minutes of rest. The oxysterols are extracted according to the Folch procedure described above (II.3.). The lipid residue is then subjected to adsorption chromatography on a silica column.\nThe silica (8 g) is prepared in 40 ml of the hexane:ether mixture (diethyl-oxide (3:7, v/v) and then poured into the appropriate columns. The height of the silica bed is 18 cm and its volume is 15 ml.\nA suitable quantity of mouse brain extract is dissolved in 1 ml of the first eluent system and deposited on the silica bed. Elution takes place in 4 steps in order to concentrate the fractions containing the oxysterols and remove as far as possible the lipids contaminating the mouse brain, in particular cholesterol.\nThe groups of fractions are evaporated to dryness, dissolved in acetone and the appropriate volumes are subjected to HPTLC chromatography.\nThe treatment of the healthy mice per os with BIM2b PO and the provenance of the brains are described in Example 4.\nThe compound BIM2b and its metabolites in the brains were separated, detected and quantified by HPTLC as described in the Methods section."}, "wild-type mice [3]": {"tested_on": "wild-type mice", "details": "mouse, in vivo", "quoted_text": "(§1) The composition from Example 2 was administered orally (by tube) to wild-type mice at a rate of 1.5 mg (50 μl of BIM2 PO) per animal, twice a day, 5 days out of 7 with a maximum duration of treatment of 21 days.\n(§2) In the treated group, 2 mice were sacrificed after 18 days and 3 mice were sacrificed after 21 days. In the control group, 3 mice were sacrificed after 21 days.\n(§3) The samples of internal organs (stomach, alimentary canal, liver, kidney, lung, heart) were immersed in 4% formaldehyde for 72 h and stored at 4° C., and then embedded in paraffin. The samples underwent macroscopic analysis before and after thinning.\n(§4) Histological examination of the internal organs fixed with formaldehyde and toxicological quantifications were carried out on sections stained with haematoxylin-eosin-saffron according to a 4-level evaluation system complying with the nomenclature (3).\n(§5) All the sections were examined for possible signs of cellular alteration, degeneration, necrosis, inflammation, fibrosis etc."}, "beagle dogs [4]": {"tested_on": "beagle dogs", "details": "dog, in vivo"}, "spontaneous gliomas": {"tested_on": "spontaneous gliomas", "test": "Anti-GBM efficacy of BIM2b PO by the oral route in dogs with spontaneous gliomas", "assay_type": "in vivo", "details": "oral treatment; mean survival of a dog with GBM 2-3 months", "quoted_text": "9 dogs with spontaneous gliomas diagnosed by imagery were included in the study.\nThe condition and the tumour volume are evaluated by MRI.\nOn day D0 (1st administration), the GBM dog subject is examined clinically and a blood sample is collected for analysis of the biochemical parameters. On D15, an electrocardiogram is recorded and a blood sample is taken.\nElectrocardiograms, blood samples and MRI are carried out on D42, D63, D84 and D105, then 3 months and 6 months after stopping the treatment.\nThe tumour response is evaluated by MRI based on the RECIST criteria (Response Evaluation Criteria in Solid Tumours). These criteria define the tumoral response as follows: • progression is an increase in size of the largest axis of the tumour of more than 20% relative to the preceding MRI; • regression is defined by a decrease in the size of the largest axis of the tumour of more than 30% relative to the preceding MRI; • stability is defined by a change in the size of the tumour between a decrease of less than 30% and an increase of less than 20%."}, "wild-type mice [5]": {"tested_on": "wild-type mice", "test": "Investigation of toxicity of BIM2b PO in healthy mice", "quoted_text": "as §1, §2, §3, §4, §5"}, "beagle dogs [6]": {"tested_on": "beagle dogs", "test": "Study of tolerance of BIM2b PO in healthy dogs"}, "GBM": {"tested_on": "GBM", "details": "cited from earlier work"}},
  "data": [
    {"compound": "CC(=O)O[C@H]1C=C2CC(OC(=O)C3COC(C)(C)O3)CC[C@]2(C)C2CC[C@@]3(C)C(CCC3[C@H](C)CCCC(C)C)C21", "note": "(stereo in doubt) [BIM2b, 7-acetoxy-10,13-dimethyl-17-(6-methylheptan-2-yl)-2,3,4,7,8,9,10,11,12,13,14,15,16,17-tetradecahydro-1H-cyclopenta[a]phenanthren-3-yl 2,2-dimethyl-1,3-dioxolane-4-carboxylate]", "values": [
      {"measurement": "crossing of the BTB", "setting": "[1]; dog", "value": "crosses the BTB"},
      {"measurement": "percentage by weight of BIM2b found in the whole tumour relative to the total quantity ingested", "setting": "[1]; dog", "value": 0.39, "unit": "%"},
      {"measurement": "ratio of percentage in dog tumour to percentage in brains of healthy mice", "setting": "[1]; 21 days after stopping the treatment", "value": 30, "unit": "times"},
      {"measurement": "Compound BIM2b (μg/g of brain)", "setting": "[2]; Day D2", "value": "12.5 μg/g of brain"},
      {"measurement": "Compound BIM2b (μg/g of brain)", "setting": "[2]; Day D4", "value": "7.1 μg/g of brain"},
      {"measurement": "Compound BIM2b (μg/g of brain)", "setting": "[2]; Day D18", "value": "11.7 μg/g of brain"},
      {"measurement": "Compound BIM2b (μg/g of brain)", "setting": "[2]; Day D22 (treatment stopped on D20)", "value": "1.0 μg/g of brain"},
      {"measurement": "percentage of BIM2b found in the brains relative to the total quantity ingested", "setting": "[2]; on D18", "value": 0.013, "unit": "%"},
      {"measurement": "drop in the content of BIM2b in the mouse brain", "setting": "[2]; on D22, after stopping of the treatment on D20", "value": 91.5, "unit": "%"},
      {"measurement": "crossing of the blood-brain barrier (BBB)", "setting": "[2]; treated healthy mice, oral", "value": "crosses the blood-brain barrier (BBB)"},
      {"measurement": "hepatic or renal toxicity (biological parameters)", "setting": "wild-type mice [3]", "value": "did not demonstrate hepatic or renal toxicity"},
      {"measurement": "undesirable clinical effects", "setting": "beagle dogs [4]", "value": "did not cause undesirable clinical effects"},
      {"measurement": "survival of the GBM dog subject whose tumour was analysed", "setting": "spontaneous gliomas", "value": 8, "unit": "months"},
      {"measurement": "toxicity (conclusion)", "setting": "wild-type mice [5]; oral", "value": "does not entrain any toxicity"},
      {"measurement": "undesirable clinical effects", "setting": "wild-type mice [5]; twice a day, 5 times a week", "value": "did not give rise to undesirable clinical effects"},
      {"measurement": "hepatic or renal toxicity", "setting": "beagle dogs [6]", "value": "did not demonstrate hepatic or renal toxicity"},
      {"measurement": "toxicity (conclusion)", "setting": "beagle dogs [6]; administered as BIM2b PO", "value": "does not lead to any toxicity"}
    ]},
    {"compound": "CN(C)C/C=C/C(=O)Nc1cc2c(Nc3ccc(F)c(Cl)c3)ncnc2cc1O[C@H]1CCOC1", "note": "[afatinib dimaleate]", "values": [
      {"measurement": "median survival for patients with GBM", "setting": "GBM", "value": "do not improve the median survival"}
    ]},
    {"compound": "N.N.[Cl][Pt][Cl]", "note": "[cisplatin]", "values": [
      {"measurement": "median survival for patients with GBM", "setting": "GBM", "value": "do not improve the median survival"}
    ]},
    {"compound": "O=P1(N(CCCl)CCCl)NCCCO1", "note": "(stereo not drawn) [cyclophosphamide]", "values": [
      {"measurement": "median survival for patients with GBM", "setting": "GBM", "value": "do not improve the median survival"}
    ]},
    {"compound": "bleomycin", "values": [
      {"measurement": "median survival for patients with GBM", "setting": "GBM", "value": "do not improve the median survival"}
    ]}
  ]
}
